Source: PMC5590075, “Synthesis, Antimicrobial, and Antioxidant Activities of Chalcogen-Containing Nitrone Derivatives from (R)-citronellal” (Medicines, 2017)
Converted amounts (≈) assume the structure as drawn. “And” between values parts separate entries of the source, which are not always exact repeats. Equal entries are not always repeated. Where two headings read alike, the source gives them in different places.

Columns and labels:
Assay type in all cases: cell-based
[1] = system: Staphylococcus aureus ATCC 25923; test: MIC and MBC, macro dilution tube method; conditions: S. mureus (so in the source); for MBC: 10^5 CFU.mL^−1; for MIC: 10^5 CFU.mL^−1, 24 h
Excerpt: (§1) To evaluate the antimicrobial potential of the synthesized compounds, the following reference strains of bacteria, that are economically important in foods, were employed: Gram-positive Listeria monocytogenes ATCC 7644, Staphylococcus aureus ATCC 25923, and Bacillus cereus ATCC 11778; Gram-negative Salmonella Typhimurium ATCC 14028, Escherichia coli O157: H7 NCTC 12900 and the clinically important Pseudomonas aeruginosa ATCC 15442.
(§2) The antimicrobial activity assay using the disk diffusion test was realized using the methodology that is recommended by the Clinical Laboratory Standards Institute (CLSI). The determination of the minimum inhibitory concentration (MIC) and minimum bactericidal concentration (MBC) was performed using the macro dilution tube method, in accordance with Rota et al., with modifications. Details of these assays are provided in the Supplemental Material. […]
(§3) 2.2. Determination of the minimum inhibitory concentration (MIC) and minimum bactericidal concentration
(§4) The MIC was determined using the macro dilution tube method, in accordance with Rota et al.
(§5) [5], with modifications. The tested concentrations were 20, 18, 15, 12, 10, 7 and 5 μL.mL‐1 of each compound. In a tube with 1 mL of MH broth, was inoculated 105 UFC.mL‐1, the compound in a predetermined concentration and, to facilitate the solubility, 2 drops of TWEEN 80. The mixture was incubated at 37 °C for 24 h under stirring (150 rpm). As the positive control, MH broth and inoculum concentration in 105 UFC.mL‐1 and as the negative control MH, the inoculum concentration in 105 UFC∙mL‐1 and streptomycin (10 μg) were used. MIC was defined as the lowest concentration of […]
(§6) After 24 h, tubes with no visible growth were seeded in a […] TSA‐YE tube and incubated at 37 °C for 24 h. The MBC is the lowest concentration of compound where 99.9% of the initially inoculated cells were killed. […]
(§7) 2.4. Radical Scavenging Activity […]
(§8) The ABTS radical scavenging activity was determined according to the method described by Erel. Different concentrations of compounds 5a–d and 10 (10–500 μ M) were mixed with the ABTS+ solution, and the decrease in the absorbance at 734 nm was recorded.

[2] = system: Escherichia coli O157: H7 NCTC 12900; test: MIC and MBC, macro dilution tube method; conditions: for MIC: E. coli O157:H7, 10^5 CFU.mL^−1, 24 h
Excerpt: as §1, §2, §3, §4, §5, §6, §7, §8

[3] = system: Bacillus cereus ATCC 11778; test: MIC and MBC, macro dilution tube method
Excerpt: as §1, §2, §3, §4, §5, §6, §7, §8

[4] = system: Staphylococcus aureus ATCC 25923; test: agar disk diffusion test; conditions: S. aureus, 1.0 × 10^8 CFU.mL^−1; 20 μL compound diluted in DMSO (1:1) per 6 mm disc; streptomycin 10 µg; mean of two repetitions
[5] = system: Salmonella Typhimurium ATCC 14028; test: agar disk diffusion test; conditions: S. Typhimurium, 1.0 × 10^8 CFU.mL^−1; 20 μL compound diluted in DMSO (1:1) per 6 mm disc; streptomycin 10 µg; mean of two repetitions
[6] = system: Listeria monocytogenes ATCC 7644; test: agar disk diffusion test; conditions: L. monocytogenes, 1.0 × 10^8 CFU.mL^−1; 20 μL compound diluted in DMSO (1:1) per 6 mm disc; streptomycin 10 µg; mean of two repetitions
[7] = system: Pseudomonas aeruginosa ATCC 15442; test: agar disk diffusion test; conditions: P. aeruginosa, 1.0 × 10^8 CFU.mL^−1; 20 μL compound diluted in DMSO (1:1) per 6 mm disc; streptomycin 10 µg; mean of two repetitions
[8] = system: Escherichia coli O157: H7 NCTC 12900; test: agar disk diffusion test; conditions: E. coli O157:H7, 1.0 × 10^8 CFU.mL^−1; 20 μL compound diluted in DMSO (1:1) per 6 mm disc; streptomycin 10 µg; mean of two repetitions
[9] = system: Salmonella Typhimurium ATCC 14028; test: MIC and MBC, macro dilution tube method; conditions: S. Typhimurium; for MBC: 10^5 CFU.mL^−1; for MIC: 10^5 CFU.mL^−1, 24 h
Excerpt: as §1, §2, §3, §4, §5, §6, §7, §8

[10] = system: Listeria monocytogenes ATCC 7644; test: MIC and MBC, macro dilution tube method; conditions: L. monocytogenes; for MBC: 10^5 CFU.mL^−1; for MIC: 10^5 CFU.mL^−1, 24 h
Excerpt: as §1, §2, §3, §4, §5, §6, §7, §8

[11] = system: Pseudomonas aeruginosa ATCC 15442; test: MIC and MBC, macro dilution tube method; conditions: P. aeruginosa; for MBC: 10^5 CFU.mL^−1
Excerpt: as §1, §2, §3, §4, §5, §6, §7, §8

all the tested bacteria = test: MIC and MBC, macro dilution tube method, summary over the panel; conditions: read-out: MIC and MBC values
Excerpt: as §1, §2, §3, §4
[5], with modifications. […]
as §8

[12] = E. coli O157:H7, 10^5 CFU.mL^−1
[13] = B. mereus (so in the source), 10^5 CFU.mL^−1
[14] = B. mereus (so in the source), 10^5 CFU.mL^−1, 24 h

| Structure (SMILES) | MBC [1] | MIC [1] | MBC [2, 12] | MIC [2] | MBC [3, 13] | MIC [3, 14] | Inhibition Zone [4] | Inhibition Zone [5] | Inhibition Zone [6] | Inhibition Zone [7] | Inhibition Zone [8] | MBC [9] | MIC [9] | MBC [10] | MBC [11] | MBC (all the tested bacteria) | MIC [10] | also measured |
| --- | --- | --- | --- | --- | --- | --- | --- | --- | --- | --- | --- | --- | --- | --- | --- | --- | --- | --- |
| CC(C)=CCCC(C)C(/C=[N+](\C)[O-])Sc1ccccc1 (stereo not shown) [5a, (E)-N,3,7-Trimethyl-2-(phenylthio)oct-6-en-1-imine oxide] | >0.65 mM.mL^−1 | >0.65 mM.mL^−1 | >0.65 mM.mL^−1 | >0.65 mM.mL^−1 | 0.59 mM.mL^−1 | 0.48 mM.mL^−1 | 15 mm | 8.5 mm | 18 mm | 8.5 mm | 11 mm |  |  |  |  |  |  | MBC ([3]; Bacillus cereus, ATCC11778): 590 µM (≈ 172 µg/mL); MIC ([3]; Bacillus cereus, ATCC11778, read-out: minimal inhibitory concentration (MIC)): 480 µM (≈ 140 µg/mL) |
| CC(C)=CCCC(C)(C/C=[N+](\C)[O-])Sc1ccccc1 (stereo not shown) [5c, (E)-N,3,7-trimethyl-3-(phenylthio)oct-6-en-1-imine oxide] | 0.69 mM.mL^−1 | 0.61 mM.mL^−1 | 0.52 mM.mL^−1 | 0.52 mM.mL^−1 | 0.69 mM.mL^−1 | 0.69 mM.mL^−1 | 24 mm |  | 26.0 mm and 26 mm | 24 mm | 21.5 mm | >0.69 mM.mL^−1 | >0.69 mM.mL^−1 | >0.69 mM.mL^−1 | 0.61 mM.mL^−1 | 520 to 690 µM (≈ 152 to 201 µg/mL) |  | MBC ([2]; Escherichia coli, NCTC12900, read-out: minimal bactericidal concentration (MBC)): 520 µM (≈ 152 µg/mL) |
| CC(C)=CCCC(C)C/C=[N+](\C)[O-] (stereo not shown) [5d, (E)-N,3,7-trimethyloct-6-en-1-imine oxide] |  | 1.26 mM.mL^−1 | 1.26 mM.mL^−1 | 1.13 mM.mL^−1 | >1.26 mM.mL^−1 | >1.26 mM.mL^−1 | 24.5 mm | 23 mm | 31.0 mm and 31 mm | 23 mm | 22.5 mm |  |  |  |  | 1130 to 1260 µM (≈ 207 to 231 µg/mL) | 1.26 mM.mL^−1 |  |
| CC(C)=CCC[C@@H](C)C(/C=N/O)[Se]c1ccccc1 (stereo partly drawn) [compound 10, (3R,E)-3,7-dimethyl-2-(phenylselanyl)oct-6-enal oxime] | >0.70 mM.mL^−1 | >0.70 mM.mL^−1 | >0.70 mM.mL^−1 | >0.70 mM.mL^−1 | >0.70 mM.mL^−1 | >0.70 mM.mL^−1 | 22 mm | 10.5 mm | 21 mm | 9 mm | 9 mm | >0.70 mM.mL^−1 | >0.70 mM.mL^−1 | >0.70 mM.mL^−1 | >0.70 mM.mL^−1 |  | >0.70 mM.mL^−1 | MIC ([11]; 10^5 CFU.mL^−1, 24 h): >0.70 mM.mL^−1 |
